Patent publication US20200397795A1, “PROPHYLACTIC TREATMENT OF VENOUS THROMBOEMBOLISM” (JANSSEN PHARMACEUTICALS, INC., priority 2019, published 2020)
Like-named read-outs stand apart in the source and are kept apart here.

Key:
[1] = system: bleeding events in high-risk, medically ill subjects; experiment: MARINER (Study 2): safety, ISTH bleeding and adverse events
From the text: (§1) The safety objectives were to compare rivaroxaban with placebo in the following bleeding outcomes in high-risk, medically ill subjects: • Major bleeding using validated International Society on Thrombosis and Haemostasis (ISTH) bleeding criteria. • Non-major clinically relevant (NMCR) bleeding. • Other bleeding.
(§2) Safety assessment was based on bleeding events classified by validated ISTH criteria as major bleeding (principal safety outcome), NMCR bleeding, or Other bleeding. […] The safety outcome of NMCR bleeding was defined as overt bleeding not meeting ISTH criteria for major bleeding, but associated with medical intervention, unscheduled contact (visit or telephone call) with a physician, (temporary) cessation of study treatment, or associated with discomfort for the subject such as pain or impairment of activities of daily life. […] Overall safety was also assessed.
(§3) The principal safety outcome was major bleeding based on validated ISTH criteria. Treatments were compared using the same statistical model (i.e., Cox proportional hazards model) as that for the primary efficacy outcome. The same analyses were used for NMCR bleeding. Safety analyses were based on the safety analysis set and on-treatment analysis phase. Bleeding events were analyzed based on time from randomization to the first occurrence.

[2] = system: bleeding events in high-risk, medically ill subjects; details: human, in vivo
From the text: as §1, §2, §3

[3] = system: events prevented vs bleeding events caused; type: in vivo, human
From the text: The same time period was utilized, preventing double counting for fatal bleeds, with all bleeds through Day 35 included (even if off treatment), and bleeding deaths were not counted as CV deaths. Using the primary endpoint, there would be 131 fewer events in the rivaroxaban group with a number-to-treat to benefit (NNT) of 77 to prevent one event, but this was counterbalanced by causing 51 more major bleeds. The benefit risk profile was improved in the subpopulation, with 182 events prevented and only 18 major bleeds caused, with NNT and number-to-treat to harm (NNH) of 55 and 560, respectively. […] More ischemic events were prevented than hemorrhagic events caused in the subpopulation in all five pairs of clinically meaningful endpoints which included asymptomatic and symptomatic VTE and VTE-related death, major bleeding, and fatal and irreversible thrombotic and bleed events. For 35 days of treatment, the number need to treat to prevent 1 event ranged from 55 to 481 for the 5 pairs, while the number needed to harm ranged from 455-1,067.

[4] = MAGELLAN (Study 1): pharmacokinetics; type: in vivo, human; details: for AUC: plasma
Description: A subset of approximately 125 subjects was to be stratified into 5 groups (of 25 subjects) based on the major diagnoses. The following pharmacokinetic (PK) parameters were calculated on Day 1 and Day 10: area under the plasma concentration curve (AUC), area under the curve normalized to body weight (AUCnorm), area under the curve for the expected dosing interval obtained after single dose administration (AUCτ), AUCτ, norm, maximum serum concentration (Cmax), maximum and normalized serum concentration (Cmax, norm), time to reach maximum concentration in plasma (tmax), half-life (t1/2), and total body clearance of drug from plasma calculated after oral administration (CL/F).

[5] = subpopulation, primary endpoint

O=C(NC[C@H]1CN(c2ccc(N3CCOCC3=O)cc2)C(=O)O1)c1ccc(Cl)s1 [Rivaroxaban, 5-chloro-N-({(5S)-2-oxo-3-[4-(3-oxo-4-morpholinyl)phenyl]-1,3,oxazolidin-5-yl}methyl)-2-thiophenecarboxamide]
Fatal bleeding, incidence ([1]; 10 mg dose stratum): 0.04% | Fatal bleeding, incidence ([1]; on-treatment, safety analysis set): 0.03% | AEs with outcome of death, n (%) ([1]; safety analysis set): 95 (1.6) % | AEs with onset >2 days from stop of study drug, n (%) [2]: 419 (7.0) % | Any AEs, n (%) ([2]; 45 days): 1438 (24.0) % | Discontinued study drug permanently because of NMCR bleeding ([2]; 45 days): 0.7% | Discontinued study drug permanently due to bleeding ([2]; 45 days): 1.1% | Major and NMCR bleeding, event rate ([2]; 45 days): 1.71 100 pt-45 dy | Major bleeding at a critical site, incidence ([2]; 45 days): 0.05% | Major bleeding, event rate ([2]; 45 days): 0.28 100 pt-45 dy | NMCR bleeding, event rate ([2]; 45 days): 1.43 100 pt-45 dy | Other bleeding, event rate ([2]; 45 days): 0.91 100 pt-45 dy | Post-baseline AEs, n (%) ([2]; 45 days): 1430 (23.9) % | Post-baseline SAEs, n (%) ([2]; 45 days): 465 (7.8) % | SAEs with onset >2 days from stop of study drug, n (%) ([2]; 45 days): 169 (2.8) % | SAEs, n (%) ([2]; 45 days): 460 (7.8) % | TEAE COPD ([2]; 45 days): 1.3% | TEAE diarrhoea ([2]; 45 days): 1.1% | TEAE headache ([2]; 45 days): 1.6% | TEAEs, n (%) ([2]; 45 days): 1198 (20.0) % | TESAEs, n (%) ([2]; 45 days): 337 (5.6) % | Number-to-treat to benefit (NNT) to prevent one event ([3]; entire MAGELLAN population, primary endpoint): 77 | Fewer primary endpoint events in the rivaroxaban group ([3]; entire MAGELLAN population, through Day 35): 131 events | Major bleeds caused ([3]; human, in vivo, 35 day): 18 | More major bleeds caused ([3]; human, in vivo, 35 day): 51 | Number needed to harm, range over 5 benefit-risk pairs ([3]; human, in vivo, 35 day): 455-1,067 | Number-to-treat to harm (NNH) ([3]; human, in vivo, 35 day): 560 | Events prevented [3, 5]: 182 events | NNT [3, 5]: 55 | Cmax ([4]; Day 10, subjects with acute infectious disease): 178.9 ng/mL | AUC ([4]; human, oral, 10 mg, Day 1, overall, 10 mg): 1640 ng·h/mL | AUC ([4]; human, oral, 10 mg, Day 10, overall, 10 mg): 1360 ng·h/mL | AUC ([4]; human, oral, 10 mg, Day 10, subjects with CHF NYHA IV): 1440 ng·h/mL | AUC ([4]; human, oral, 10 mg, Day 10, subjects with acute infectious disease): 1190 ng·h/mL | Cmax ([4]; human, serum, oral, 10 mg, Day 1, overall, 10 mg, read-out: Cmax): 176 ng/mL | Cmax ([4]; human, serum, oral, 10 mg, Day 10, overall, 10 mg, read-out: Cmax): 189 ng/mL | Cmax ([4]; human, serum, oral, 10 mg, Day 10, subjects with CHF NYHA IV, read-out: Cmax): 192 ng/mL
